Numbers after ± are expanded uncertainties.
Settings: Crystal; Adiabatic calorimetry

Triple point temperature: 85.53 ± 0.039 K
SMILES: CCC [propane]
